In patent US10842779B2, “Heterocyclic compounds and their use in preventing or treating bacterial infections” (priority 2015, dated 2020):
Read-outs that look alike come from different tables or passages of the source.

Assays:
Test in all cases: MIC of compounds alone, broth microdilution
Assay type in all cases: cell-based
[1] = tested on: E. cloacae; conditions: Enterobacter cloacae
Protocol: (§1) Method 2: MIC of Compounds and Synergy with Ceftazidime Against Bacterial Isolates (Table 2 and 3)
(§2) Compounds of the present invention were assessed against genotyped bacterial strains alone or in combination with the β-lactam ceftazidime. In the assays, MICs of said compounds, or of ceftazidime at fixed concentrations of said compounds were determined by the broth microdilution method according to the Clinical Laboratory Standards Institute (CLSI—M7-A7). Briefly, compounds alone according to the invention were prepared in DMSO and spotted (2 μL each) on sterile polystyrene plates (Corning, 3788). Compounds and ceftazidime dilutions were prepared in DMSO and spotted (1 μL each) on sterile polystyrene plates (Corning, 3788). Log phase bacterial suspensions were adjusted to a final density of 5×10^5 cfu/mL in cation-adjusted Mueller-Hinton broth (Beckton-Dickinson) and added to each well (98 μL). Microplates were incubated for 16-20 h at 35° C. in ambient air. The MIC of the compounds was defined as the lowest concentration of said compounds that prevented bacterial growth as read by visual inspection. The MIC of ceftazidime at each compound concentration was defined as the lowest concentration of ceftazidime that prevented bacterial growth as read by visual inspection.

[2] = tested on: P. aeruginosa; conditions: Pseudomonas aeruginosa
Protocol: as §1, §2

[3] = tested on: C. freundii; conditions: Citrobacter freundii
Protocol: as §1, §2

[4] = tested on: K. oxytoca; conditions: Klebsiella oxytoca
Protocol: as §1, §2

[5] = tested on: E. coli; conditions: Escherichia coli
Protocol: as §1, §2

In the case of `CC(C)(O/N=C(\C(=O)N[C@@H]1C(=O)N2C(C(=O)[O-])=C(C[n+]3ccccc3)CS[C@H]12)c1csc(N)n1)C(=O)O` [CAZ, ceftazidime, reference compound], the MIC ([1]; ECL 2185D, beta-lactamases OXA-163) is reported as 128 µg/mL, the MIC ([1]; ECL 190310, beta-lactamases AmpC) is reported as greater than 128 µg/mL and the MIC ([1]; ECL 190408, beta-lactamases TEM-1, CTX-M-15 OXA-1) is reported as 128 µg/mL. The MIC ([1]; ECL 200138, beta-lactamases AmpC) was greater than 128 µg/mL, the MIC ([1]; ECL 200322, beta-lactamases TEM-1, CTX-M-15 OXA-1) was greater than 128 µg/mL and the MIC ([1]; ECL 260033, beta-lactamases AmpC) was greater than 128 µg/mL. For the same molecule, the MIC ([1]; ECL 260253, beta-lactamases TEM-1 KPC-3) was greater than 128 µg/mL, the MIC ([1]; ECL 260323, beta-lactamases AmpC) was greater than 128 µg/mL and the MIC ([1]; ECL 260508, beta-lactamases TEM-1, CTX-M-15, read-out: MIC) was 64 µg/mL. The MIC ([1]; ECL HAN, beta-lactamases OXA-35) was greater than 128 µg/mL, the MIC ([1]; ECL NEM146383, beta-lactamases AmpC) was greater than 128 µg/mL and the MIC ([1]; ECL P99, beta-lactamases AmpC) was 128 µg/mL. It also gave an MIC ([1]; ECL UFR12, beta-lactamases CTX-M-9 OXA-48, read-out: MIC) of 2 µg/mL, an MIC ([1]; ECL UFR13, beta-lactamases TEM-1, SHV-12, CTX-M-9 OXA-48) greater than 128 µg/mL and an MIC ([1]; ECL UFR14, beta-lactamases TEM-1, SHV-12, CTX-M-15 DHA-1 OXA-1 OXA-48) greater than 128 µg/mL. It also gave an MIC ([1]; ECL UFR38, beta-lactamases CTX-M-15 NDM-1) greater than 128 µg/mL, an MIC ([1]; ECL UFR51, beta-lactamases SHV-12 IMP-8) greater than 128 µg/mL and an MIC ([1]; ECL UFR60, beta-lactamases TEM-1, CTX-M-15 KPC-2) greater than 128 µg/mL. For the same molecule, the MIC ([1]; ECL UFR70, beta-lactamases TEM-1, CTX-M-15 CMY-2 OXA-1) was greater than 128 µg/mL, the MIC ([1]; ECL UFR84, beta-lactamases TEM-1 AmpC OXA-1) was greater than 128 µg/mL and the MIC ([1]; ECL UFR85, beta-lactamases TEM-1, CTX-M-15 AmpC) was greater than 128 µg/mL. The MIC [2] was 128 µg/mL, the MIC ([2]; CIP107051) was 256 µg/mL and the MIC [3] was greater than 128 µg/mL. It also gave an MIC ([3]; alone, CFR UFR10, beta-lactamases OXA-48, read-out: MIC) of 64 µg/mL, an MIC ([3]; alone, CFR UFR11, beta-lactamases TEM-1 OXA-1 OXA-48, read-out: MIC) of 8 µg/mL and an MIC [4] of 128 µg/mL. It also gave an MIC ([5]; ECO 180070, beta-lactamases TEM-1, CTX-M-15, read-out: MIC) of 64 µg/mL, an MIC ([5]; ECO 190314, beta-lactamases CTX-M-1, read-out: MIC) of 8 µg/mL and an MIC ([5]; ECO 190317, beta-lactamases TEM-1, SHV-12, CTX-M-15 OXA-1) of 128 µg/mL. It also gave an MIC ([5]; ECO 190457, beta-lactamases CTX-M-15 OXA-1, read-out: MIC) of 16 µg/mL, an MIC ([5]; ECO 190549, beta-lactamases CTX-M-1, read-out: MIC) of 8 µg/mL and an MIC ([5]; ECO 200159, beta-lactamases TEM-1, CTX-M-14, read-out: MIC) of 2 µg/mL. The MIC ([5]; ECO 200259, beta-lactamases CTX-M-14, read-out: MIC) was 4 µg/mL, the MIC ([5]; ECO 200344, beta-lactamases CTX-M-1, read-out: MIC) was 16 µg/mL and the MIC ([5]; ECO 260096, beta-lactamases CTX-M-132) was 128 µg/mL. The MIC ([5]; ECO 260304, beta-lactamases CTX-M-15, read-out: MIC) was 16 µg/mL, the MIC ([5]; ECO 260508, beta-lactamases TEM-1, CTX-M-15 OXA-1) was 128 µg/mL and the MIC ([5]; ECO UFR16, beta-lactamases TEM-1, CTX-M-15 OXA-1 OXA-48, read-out: MIC) was 64 µg/mL. For the same molecule, the MIC ([5]; ECO UFR17, beta-lactamases TEM-1, CTX-M-15 CMY-2 OXA-1 OXA-181) was greater than 128 µg/mL, the MIC ([5]; ECO UFR18, beta-lactamases CTX-M-15 OXA-204) was greater than 128 µg/mL and the MIC ([5]; ECO UFR19, beta-lactamases CTX-M-15 CMY-2 OXA-1 OXA-204) was 128 µg/mL. For the same molecule, the MIC ([5]; ECO UFR32, beta-lactamases TEM-1, VEB-1 OXA-10) was greater than 128 µg/mL and the MIC ([5]; ECO UFR39, beta-lactamases CTX-M-15 NDM-1) was greater than 128 µg/mL.
